≈ marks a conversion by molar mass, not a printed value. Calls of active or inactive are those of the source. The rule behind the calls is not given here.
Tests used:
[1] = system: Micrococcus luteus; assay: Antibacterial against Micrococcus luteus ATCC 9341 after 24 hrs by NCCLS M7-A6 method; assay type: functional
[2] = system: Bacillus subtilis; assay: Antibacterial against Bacillus subtilis ATCC 6633 after 24 hrs by NCCLS M7-A6 method; assay type: functional
[3] = system: Bacillus cereus; assay: Antibacterial against Bacillus cereus ATCC 11778 after 24 hrs by NCCLS M7-A6 method; assay type: functional
[4] = system: Staphylococcus aureus; assay: Antibacterial against Staphylococcus aureus ATCC 6538 after 24 hrs by NCCLS M7-A6 method; assay type: functional; conditions: ATCC 6538, 24 h
[5] = system: Staphylococcus aureus; assay: Antibacterial against Staphylococcus aureus ATCC 6538P at 20 mg/mL after 24 hrs by NCCLS M7-A6 method; assay type: functional, organism-based
[6] = system: Escherichia coli; assay: Antibacterial against Escherichia coli ATCC 8739 at 20 mg/mL after 24 hrs by NCCLS M7-A6 method; assay type: functional, organism-based
[7] = system: Escherichia coli; assay: Antibacterial against Escherichia coli ATCC 10536 at 20 mg/mL after 24 hrs by NCCLS M7-A6 method; assay type: functional, organism-based
[8] = system: Staphylococcus aureus; assay: Antibacterial against Staphylococcus aureus ATCC 6538P after 24 hrs by NCCLS M7-A6 method; assay type: functional
[9] = system: Escherichia coli; assay: Antibacterial against Escherichia coli ATCC 10536 after 24 hrs by NCCLS M7-A6 method; assay type: functional; conditions: ATCC 10536, 24 h
[10] = system: 786-0; assay: Cytotoxicity against human 786-0 cells assessed as cell growth inhibition at 10^-5 M; assay type: functional, cell-based
[11] = system: HL-60; assay: Cytotoxicity against human HL60 cells assessed as cell growth inhibition at 10^-5 M; assay type: functional, cell-based
[12] = system: Bacillus subtilis; assay: Antibacterial against Bacillus subtilis ATCC 6633 at 20 mg/mL after 24 hrs by NCCLS M7-A6 method; assay type: functional, organism-based
[13] = system: Bacillus cereus; assay: Antibacterial against Bacillus cereus ATCC 11778 at 20 mg/mL after 24 hrs by NCCLS M7-A6 method; assay type: functional, organism-based
[14] = system: Staphylococcus aureus; assay: Antibacterial against Staphylococcus aureus ATCC 6538 at 20 mg/mL after 24 hrs by NCCLS M7-A6 method; assay type: functional, organism-based
[15] = system: Cancer cell lines; assay: Cytotoxicity against human lung cancer cells assessed as cell growth inhibition at 10^-5 M; assay type: functional, cell-based
[16] = system: Leukemia cell; assay: Cytotoxicity against human leukemia cells assessed as cell growth inhibition at 10^-5 M; assay type: functional, cell-based
[17] = system: Cancer cell lines; assay: Cytotoxicity against human colon cancer cells assessed as cell growth inhibition at 10^-5 M; assay type: functional, cell-based
[18] = system: Cancer cell lines; assay: Cytotoxicity against human CNS cancer cells assessed as cell growth inhibition at 10^-5 M; assay type: functional, cell-based
[19] = system: Melanoma cell; assay: Cytotoxicity against human melanoma cells assessed as cell growth inhibition at 10^-5 M; assay type: functional, cell-based
[20] = system: Cancer cell lines; assay: Cytotoxicity against human ovarian cancer cells assessed as cell growth inhibition at 10^-5 M; assay type: functional, cell-based
[21] = system: Cancer cell lines; assay: Cytotoxicity against human renal cancer cells assessed as cell growth inhibition at 10^-5 M; assay type: functional, cell-based
[22] = system: Cancer cell lines; assay: Cytotoxicity against human prostate cancer cells assessed as cell growth inhibition at 10^-5 M; assay type: functional, cell-based
[23] = system: Cancer cell lines; assay: Cytotoxicity against human breast cancer cells assessed as cell growth inhibition at 10^-5 M; assay type: functional, cell-based
[24] = Micrococcus luteus, ATCC 9341, 24 h, read-out: MIC
[25] = Bacillus subtilis, ATCC 6633, 24 h, read-out: MIC
[26] = Bacillus cereus, ATCC 11778, 24 h, read-out: MIC

SMILES	MIC [1, 24] [mM]	MIC [2, 25] [mM]	MIC [3, 26] [mM]	MIC [4] [mM]	Activity [6]	MIC [8] [mM]	MIC [9] [mM]	other results
CC(=O)c1cc2c(C)cc(=O)oc2cc1O	45.8 (≈ 9990 µg/mL)	22.9 (≈ 5000 µg/mL)	4.6 (≈ 1000 µg/mL)	45.8 (≈ 9990 µg/mL)	inactive	–	–	Activity [5]: inactive; Activity [7]: inactive
Cc1cc(=O)oc2cc(OCCN3CCCCC3C)ccc12 (centres undefined)	14.4 (≈ 4340 µg/mL)	14.4 (≈ 4340 µg/mL)	28.8 (≈ 8680 µg/mL)	43.2 (≈ 13000 µg/mL)	–	28.8 (≈ 8680 µg/mL)	14.4 (≈ 4340 µg/mL)	–
CC(=O)c1c(OCCN2CCCCC2C)ccc2c(C)cc(=O)oc12 (centres undefined)	12.3 (≈ 4220 µg/mL)	24.6 (≈ 8450 µg/mL)	24.6 (≈ 8450 µg/mL)	24.6 (≈ 8450 µg/mL)	–	24.6 (≈ 8450 µg/mL)	49.2 (≈ 16900 µg/mL)	growth inhibition (GI) [10]: Active; growth inhibition (GI) [11]: Active
C[N+](C)(CCOc1ccc2ccc(=O)oc2c1)Cc1ccccc1	1.4	21.9	21.2	21.2	–	21.2	21.2	–
CCN(CC)CCOc1ccc2c(C)cc(=O)oc2c1C(C)=O.Cl	–	–	–	–	–	–	–	MIC [1]: 3.5 mM
CCN(CC)CCOc1cc2oc(=O)cc(C)c2cc1C(C)=O	–	–	–	–	–	–	–	MIC [1]: 31.5 mM (≈ 10000 µg/mL); MIC [2]: 31.5 mM (≈ 10000 µg/mL); MIC [3]: 63 mM (≈ 20000 µg/mL)
CCN(CC)CCOc1ccc2c(C)cc(=O)oc2c1	2 (≈ 551 µg/mL)	2 (≈ 551 µg/mL)	2 (≈ 551 µg/mL)	32.1 (≈ 8840 µg/mL)	–	32.1 (≈ 8840 µg/mL)	8 (≈ 2200 µg/mL)	–
CCN(CC)CCOc1cc2oc(=O)cc(C)c2cc1C(C)=O.Cl	–	–	–	7.1	–	7.1	7.1	MIC [1]: 1.8 mM; MIC [2]: 0.4 mM; MIC [3]: 0.4 mM
CC(=O)c1cc2c(C)cc(=O)oc2cc1OCCN1CCCCC1	1.7 (≈ 560 µg/mL)	1.7 (≈ 560 µg/mL)	1.7 (≈ 560 µg/mL)	13.3 (≈ 4380 µg/mL)	–	6.7 (≈ 2210 µg/mL)	13.3 (≈ 4380 µg/mL)	–
CC1CCCCN1CCOc1ccc2ccc(=O)oc2c1 (centres undefined)	15.4 (≈ 4430 µg/mL)	30.9 (≈ 8880 µg/mL)	30.9 (≈ 8880 µg/mL)	46.3 (≈ 13300 µg/mL)	–	61.8 (≈ 17800 µg/mL)	30.9 (≈ 8880 µg/mL)	–
Cc1cc(=O)oc2cc(OCCN(C)Cc3ccccc3)ccc12	40.7 (≈ 13200 µg/mL)	–	–	–	inactive	–	–	Activity [12]: inactive; Activity [13]: inactive; Activity [14]: inactive; Activity [5]: inactive; Activity [7]: inactive
Cc1cc(=O)oc2cc(OCCN(C(C)C)C(C)C)ccc12	7.4 (≈ 2250 µg/mL)	2.9 (≈ 880 µg/mL)	2.9 (≈ 880 µg/mL)	44.1 (≈ 13400 µg/mL)	–	44.1 (≈ 13400 µg/mL)	14.7 (≈ 4460 µg/mL)	growth inhibition (GI) [10]: inactive; growth inhibition (GI) [15]: inactive; growth inhibition (GI) [16]: inactive; growth inhibition (GI) [17]: inactive; growth inhibition (GI) [18]: inactive; growth inhibition (GI) [19]: inactive; growth inhibition (GI) [20]: inactive; growth inhibition (GI) [21]: inactive; growth inhibition (GI) [22]: inactive; growth inhibition (GI) [23]: inactive
CC(=O)c1c(OCCN2CCOCC2)ccc2c(C)cc(=O)oc12	30.2 (≈ 10000 µg/mL)	–	–	–	inactive	–	–	Activity [12]: inactive; Activity [13]: inactive; Activity [14]: inactive; Activity [5]: inactive; Activity [7]: inactive
CC(=O)c1cc2c(C)cc(=O)oc2cc1OCCN1CCCCC1C (centres undefined)	6.6 (≈ 2270 µg/mL)	1.6 (≈ 549 µg/mL)	1.6 (≈ 549 µg/mL)	26.3 (≈ 9030 µg/mL)	inactive	26.3 (≈ 9030 µg/mL)	26.3 (≈ 9030 µg/mL)	–
Cc1cc(=O)oc2cc(OCC[N+]3(C)CCCCC3C)ccc12 (centres undefined)	22.6	22.6	45.1	–	inactive	–	–	Activity [14]: inactive; Activity [5]: inactive; Activity [7]: inactive
CCN(CC)CCOc1ccc2c(C)cc(=O)oc2c1C(C)=O	2 (≈ 635 µg/mL)	3.9 (≈ 1240 µg/mL)	3.9 (≈ 1240 µg/mL)	3.9 (≈ 1240 µg/mL)	–	3.9 (≈ 1240 µg/mL)	–	–

Reference: ChEMBL document CHEMBL1781990, “Synthesis and pharmacological activity of O-aminoalkyl derivatives of 7-hydroxycoumarin” (2011)
